We go through 2 compounds from patent US20110136867A1, “Treatment of Synucleinopathies” (priority 2006, published 2011).

“Also recorded” adds a separate entry of the source.

The test system of data set [1] is primary dopaminergic cultures. Briefly: α-synuclein toxicity in primary dopaminergic cultures. It counts as cell-based.
Data set [2] concerns α-synuclein. As to the kind of experiment: α-synuclein degradation assay in transfected COS-7 cells (quantitative Western blotting). It counts as cell-based. The note with it: COS-7 cells. An excerpt:
Plasmids: C220S cDNA was generated by PCR site-specific mutagenesis. For the PCR, the 5′ primer is uchforw SEQ ID NO: 1 ([…]), and 3′ primer is uchc220s SEQ ID NO:2 (CTAAGA […]). Wt UCH-L1 served as the template. The PCR fragment was inserted into pcDNA vector. For S18YC220S mutant, S18Y UCH-L1 served as the template in PCR. For the FLAG tagged UCH-L1, the 5′ primer is FLAGuchforw SEQ ID NO: 3 ([…] CGATGGAG), and the 3′ primer is uchrev SEQ ID NO: 4 ([…]). Wt UCH-L1 or C220S served as the template. PCR fragment was purified and inserted into pcDNA vector. For the FLAG tagged UCH-L3, the 5′ primer is L3HindIII SEQ ID NO: 5 (CTAAAGCTTATGGACTAC […]), the 3′primer is L3XhoISAA SEQ ID NO: 6 ([…]). […] After 24 hours of incubation, the cells were lysed with Tris buffer (50 mM Tris, 2% SDS, 0.1% NP-40), and subjected to SDS-PAGE, followed by quantitative Western blotting.
(§1) Western Blotting: Following transfer of SDS gels onto NC membrane, all membranes were blocked with 5% non-fat milk in TBST (50 mM Tris-HCl pH7.4, 150 mM NaCl, 0.1% Tween 20), and incubated with primary antibody overnight with 1% BSA in TBST, washed three times with TBST, and incubated with horseradish peroxidase-conjugated secondary antibody for 1 hour (Promega). Bound antibodies were detected using enhanced chemiluminascence (NEM). […]

The test system of data set [3] is SH-SY5Y cells overexpressing α-synuclein. Briefly: α-synuclein toxicity in SH-SY5Y cells infected by α-synuclein-expressing adenovirus (Trypan blue viable cell counting, MTT assay). It counts as cell-based. On the procedure: Viral Infection: Viral infection and MTT assay in SH-SY5Y cells: The viruses were amplified and purified according to the published procedure. SH-SY5Y cells were grown on 100 mm petri-dishes and induced with 100 nM retinoic acid for 3-5 days before the virus infection with M.I.O at 75. Viruses were diluted with DPBS to desired M.I.O. After four hours of incubation, 10 ml growth medium was added. On the second day, cells were splitted into 96-well plates and treated with compounds for next 48 hours. The growth medium in each well was replaced with growth medium with 5 ug/ml MTT. Medium was removed after three hours incubation, and 200 ul isopropyl (0.04N HCl) was added into each well. The signal was read at 570 nm.
Viable cell counting: At stated time poins, SH-SY5Y cells were trypsinized with 100 ul trypsin-EDTA for 1 minute and neutralized with 400 ul growth medium. Cell suspension was made up by mixing 0.2 ml of cells in growth medium, 0.3 ml of HBSS and 0.5 ml of 0.4% Trypan Blue solution. Viable cell numbers were counted by standard cell counting chamber.
Since α-synuclein neurotoxicity is dose-dependent, it follows that accumulation of α-synuclein, caused by UCH-L1 farnesylation, should promote its toxicity. […] These cells express high endogenous levels of UCH-L1. […] The unit of y-axis is 10^5 /ml. (F) Cell viability was assessed by the amount of metabolic activity using MTT assay. […]
(Tetrazolium assays rely on reduction of a dye to a coloured formazan, in cell work by metabolically active cells.)

Data set [4] concerns UCH-L1. Briefly: Total amount and turnover of UCH-L1 in SH-SY5Y cells (pulse-chase). Format: cell-based.
In data set [5] the test system is UCH-L1. Briefly: Membrane bound and cytosolic UCH-L1 in SH-SY5Y cells (2D electrophoresis, Western blotting). Particulars: compared to DMSO. It counts as cell-based. On the procedure: 2D electrophoresis: For the isolation of total cellular protein, cultured SH-SY5Y cells maintained as described above were rinsed with ice-cold PBS. Cells were lysed in 1 ml dSDS buffer (50 mM Tris-HCl, pH 8.0 0.1% SDS) supplemented with protease inhibitor cocktail. Lysates were boiled for 3 min, and were treated with Dnase and Rnase as described. Lysates were precipitated with ice-cold acetone for at least 2 hours, and pellets were resuspended in 2D sample buffer (8M urea, 0.5% CHAPS, 0.2% DTT, 0.5% IPG buffer, 0.002% bromophenol blue). 2D electrophoresis was carried out according to manufacture's protocol (Amersham Life Science). 7 cm pH 4-7 strips were used. For SH-SY5Y membrane fraction, culture SH-SY5Y cells were rinsed with cold PBS and harvested with lysis buffer (50 mM Tris-HCl, pH 8.0, 1 mM ZnAc2, 250 mM sucrose). Lysate was passed through 25G needles for several times and spun at 1000 g for 5 min. […]
as §1
On the technique in general: Immunoblotting shows a protein as a band on a membrane.

The subject of data set [6] is α-synuclein. Briefly: α-synuclein accumulation in SH-SY5Y cells infected with α-synuclein-expressing adenovirus (Western blotting, normalized against actin). Format: cell-based. On the procedure: Western Blotting: Following transfer of SDS gels onto NC membrane, all membranes were blocked with 5% non-fat milk in TBST (50 mM Tris-HCl pH7.4, 150 mM NaCl, 0.1% Tween 20), and incubated with primary antibody overnight with 1% BSA in TBST, washed three times with TBST, and incubated with horseradish peroxidase-conjugated secondary antibody for 1 hour (Promega). Bound antibodies were detected using enhanced chemiluminascence (NEM).
Since α-synuclein neurotoxicity is dose-dependent, it follows that accumulation of α-synuclein, caused by UCH-L1 farnesylation, should promote its toxicity. […] These cells express high endogenous levels of UCH-L1. […] The unit of y-axis is 10^5 /ml. (F) Cell viability was assessed by the amount of metabolic activity using MTT assay. […] The effect of FTI-277 on the α-synuclein accumulation in the SH-SY5Y infected with α-synuclein-expressing adenovirus were analyzed by Western blotting (B) and the amount of α-synuclein (C) was quantified using NIH Image program and normalized against the amount of actin.

Data set [7] deals with α-synuclein. As to the kind of experiment: Sandwich ELISA of total α-synuclein in brain fractions of α-synuclein transgenic mice. Format: in vivo. Particulars: vs vehicle. On the procedure: (§2) Farnesyl transferase inhibitors Zarnestra and OSI-754 were administered to mice of the α-synuclein transgenic line described in Masliah et al. (Masliah et al. “Dopaminergic loss and inclusion body formation in alpha-synuclein mice: implications for neurodegenerative disorders” Science 287(5456):1265-69, 2000; incorporated herein by reference). Animals from this line have α-synuclein neuronal inclusions in the cortex, hippocampus, and the olfactory bulb (Masliah et al. “Dopaminergic loss and inclusion body formation in alpha-synuclein mice: implications for neurodegenerative disorders” Science 287(5456):1265-69, 2000; incorporated herein by reference). Transgenic mice were orally administered either FTI in 20% cyclodextrin solution or the same volume of vehicle alone twice a day for 30 or 90 days. In some cases, non-transgenic mice also received vehicle twice a day for 30 to 90 days. At the end of treatment, mice were sacrificed, and the brains removed and hemisected. One hemisphere of each was fixed in 4% paraformaldehyde/PBS (pH 7.4), cryoperserved, then sectioned for histology. The other hemisphere was subdivided into four brain regions, including the cortex and hippocampus, that were homogenized and processed into cytoplasmic and membrane fractions.
Total α-synuclein levels were analyzed by a sandwich ELISA assay similar to one previously described (El-Agnaf et al. “Detection of oligomeric forms of alpha-synuclein protein in human plasma as a potential biomarker for Parkinson's disease” FASEB J. 20(3):419-25, 2006; incorporated herein by reference). In the cortex of vehicle treated animals, α-synuclein protein levels in the α-synuclein transgenic line are greater than in non-transgenic mice in both cytoplasmic (FIG. 10) and membrane fractions (FIG. 11).
For orientation: In an ELISA, binding on a coated surface is turned into a signal by an enzyme label.

Data set [8] has as its system Neuronal Specific Nuclear Protein (NeuN). As to the kind of experiment: NeuN staining of cortex and hippocampus of α-synuclein transgenic mice. Format: in vivo. Particulars: 90 days of treatment. On the procedure: (§3) Farnesyl transferase inhibitors Zarnestra and OSI-754 were administered to mice of the α-synuclein transgenic line described in Masliah et al. (Masliah et al. “Dopaminergic loss and inclusion body formation in alpha-synuclein mice: implications for neurodegenerative disorders” Science 287(5456):1265-69, 2000; incorporated herein by reference). Animals from this line have α-synuclein neuronal inclusions in the cortex, hippocampus, and the olfactory bulb (Masliah et al. “Dopaminergic loss and inclusion body formation in alpha-synuclein mice: implications for neurodegenerative disorders” Science 287(5456):1265-69, 2000; incorporated herein by reference). Transgenic mice were orally administered either FTI in 20% cyclodextrin solution or the same volume of vehicle alone twice a day for 30 or 90 days. In some cases, non-transgenic mice also received vehicle twice a day for 30 to 90 days. At the end of treatment, mice were sacrificed, and the brains removed and hemisected. One hemisphere of each was fixed in 4% paraformaldehyde/PBS (pH 7.4), cryoperserved, then sectioned for histology. […]
Formation of α-synucleininclusions in the cortex and hippocampus was probed by immunostaining with an antibody for human α-synuclein. Cells positive for human α-synuclein were quantified. […]

The test system of data set [9] is α-synuclein. As to the kind of experiment: Immunostaining for human α-synuclein in brain sections of α-synuclein transgenic mice. Format: in vivo. The note with it: 90 days, vs vehicle. On the procedure: as §2
Formation of α-synuclein inclusions in the cortex and hippocampus was probed by immunostaining with an antibody for human α-synuclein. Cells positive for human α-synuclein were quantified. […] These regions were also analyzed for ubiquitin-immunoreactive inclusions and by the Campbell Switzer method of silver staining. Ubiquitin is known to be a constituent of Lewy Bodies and in the α-synculein inclusions found in the transgenic mouse line used in the study (Masliah et al. “Dopaminergic loss and inclusion body formation in alpha-synuclein mice: implications for neurodegenerative disorders” Science 287(5456):1265-69, 2000; incorporated herein by reference). […] Campbell-Switzer staining is a general marker of Lewy Body type inclusions (Uchihara et al. “Silver stainings distinguish Lewy bodies and glial cytoplasmic inclusions: comparison between Gallyas-Braak and Campbell-Switzer methods” Acta Neuropathol. (Berl.) 110(3):255-60, 2005; incorporated herein by reference).

Data set [10] deals with farnesylated UCH-L1. Briefly: Quantitative Western Blot of farnesylated UCH-L1 in cortex membrane fraction of α-synuclein transgenic mice. It counts as in vivo. Particulars: 45 mg/kg twice a day, 30 days. On the procedure: as §3
Farnesylated UCH-L1 in the cortex is contained in the membrane fraction. The amount of UCH-L1 was determined by quantitative Western Blot.
Total α-synuclein levels were analyzed by a sandwich ELISA assay. […] The amount of farnesylated UCH-L1 was determined by quantitative Western Blot, then normalized to actin.

[11] abbreviates: cortex, 45 mg/kg twice a day, 30 days.

Turning to `COC(=O)[C@H](CCSC)NC(=O)c1ccc(NC[C@@H](N)CS)cc1-c1ccccc1` [FTI-277], the α-synuclein toxicity result in data set [1] is listed as “inhibit α-synuclein toxicity”. Also, the synuclein level entry in data set [2] is listed as “lowers synuclein level”. For the same compound, the “neuroprotective effect of FTI-277 on co-administration of the small-molecule UCH-L1 inhibitor” value in [3] (SH-SY5Y cells infected with α-synuclein adenovirus, data not shown) was “eliminated”. Moreover, the “α-synuclein toxicity / loss of cells” value in data set [3] (neuronally differentiated SH-SY5Y cells infected with α-synuclein adenovirus) was “inhibits synuclein toxicity; also recorded: rescued α-synuclein toxicity; also recorded: significantly decreased loss of cells”. The “total amount of UCH-L1” value in data set [4] was “reduced the total amount of UCH-L1”. For the same compound, the “rate of turnover of UCH-L1” value in [4] (pulse-chase experiment not shown) is given as “increased its rate of turnover”. For the same compound, in data set [5], the “amount of cytosolic UCH-L1” value is given as “without affecting” and the “amount of membrane bound UCH-L1” value was “significant decrease; also recorded: decreased the amount of the membrane-associated species”. Also, the “amount of α-synuclein” value in data set [6] is on record as “reducing the amount of α-synuclein accumulation; also recorded: reduced the amount of α-synuclein”.

Take `C#Cc1cccc(-c2cc(=O)n(C)c3ccc(C(O)(c4ccc(Cl)cc4)c4cncn4C)cc23)c1` (stereo not drawn) [OSI-754]: the “α-synuclein protein levels, cytoplasmic fraction” value in [7] (cortex, 9 mg/kg twice a day, 90 days) was “lower α-synuclein protein levels”; in data set [7] (setting [11]), “lower α-synuclein protein levels”; in data set [7] (cortex, 45 mg/kg twice a day, 90 days) it was “lower α-synuclein protein levels”. Also, the “α-synuclein protein levels, membrane fraction” value in data set [7] (setting [11]) is on record as “lower α-synuclein protein levels”; in data set [7] (hippocampus, 9 mg/kg twice a day, 90 days), “lower α-synuclein protein levels”; in data set [7] (hippocampus, 45 mg/kg twice a day, 90 days), “lower α-synuclein protein levels”. The “neuronal morphology or density (NeuN staining)” value in data set [8] was “did not affect neuronal morphology or density”. The “α-synuclein-positive cells per mm^2” value in [9] (cortex, 9 mg/kg twice a day) was “fewer”; in data set [9] (cortex, 45 mg/kg twice a day) it was “fewer”; in data set [9] (hippocampus, 9 mg/kg twice a day), “fewer”; in data set [9] (hippocampus, 45 mg/kg twice a day), “fewer”. The “amount of farnesylated UCH-L1, normalized to actin” value in data set [10] is given as “decreased the amount of farnesylated UCH-L1”.
